Results on twelve compounds are retold here after ChEMBL document CHEMBL5291721, “A preclinical secondary pharmacology resource illuminates target-adverse drug reaction associations of marketed drugs” (Nat Commun, 2023).

For one assay, the target named is Acetylcholinesterase (Homo sapiens, UniProt P22303). Format: functional.
In assay [1] the target is T1, Alpha-1A adrenergic receptor (Homo sapiens, UniProt P35348).
T1 sequence (P35348 whole entry): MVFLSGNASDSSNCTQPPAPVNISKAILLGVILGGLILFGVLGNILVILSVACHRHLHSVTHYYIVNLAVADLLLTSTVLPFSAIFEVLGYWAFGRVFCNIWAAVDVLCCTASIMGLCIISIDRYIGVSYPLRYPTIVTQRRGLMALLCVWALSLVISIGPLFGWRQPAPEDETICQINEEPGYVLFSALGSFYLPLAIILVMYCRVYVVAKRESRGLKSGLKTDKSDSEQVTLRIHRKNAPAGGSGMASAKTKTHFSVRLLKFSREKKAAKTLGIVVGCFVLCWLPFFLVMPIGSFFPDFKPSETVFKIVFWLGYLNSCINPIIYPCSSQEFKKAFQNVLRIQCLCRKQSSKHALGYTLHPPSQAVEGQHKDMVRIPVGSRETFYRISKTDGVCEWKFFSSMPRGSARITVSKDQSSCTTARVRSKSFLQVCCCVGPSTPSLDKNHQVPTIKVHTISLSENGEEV
Format: functional, cell-based.

Assay [2] concerns the target T2, Muscarinic acetylcholine receptor M2 (Homo sapiens, UniProt P08172).
T2 sequence (P08172 whole entry): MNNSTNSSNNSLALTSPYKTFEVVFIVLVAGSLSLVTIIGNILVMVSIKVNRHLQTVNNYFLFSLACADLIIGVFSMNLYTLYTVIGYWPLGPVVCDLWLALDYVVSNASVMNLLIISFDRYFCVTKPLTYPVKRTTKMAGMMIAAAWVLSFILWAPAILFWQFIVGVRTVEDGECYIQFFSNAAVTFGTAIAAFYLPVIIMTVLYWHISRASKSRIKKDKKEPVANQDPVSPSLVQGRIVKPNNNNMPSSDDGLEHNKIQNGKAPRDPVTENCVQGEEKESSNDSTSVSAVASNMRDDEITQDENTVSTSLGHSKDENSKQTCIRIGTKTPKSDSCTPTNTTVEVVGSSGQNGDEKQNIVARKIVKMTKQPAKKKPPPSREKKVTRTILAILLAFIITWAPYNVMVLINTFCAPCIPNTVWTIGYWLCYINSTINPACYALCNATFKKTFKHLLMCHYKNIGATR

Assay [3] addresses T3, Amine oxidase [flavin-containing] A (Homo sapiens, UniProt P21397).
T3 sequence (P21397 whole entry): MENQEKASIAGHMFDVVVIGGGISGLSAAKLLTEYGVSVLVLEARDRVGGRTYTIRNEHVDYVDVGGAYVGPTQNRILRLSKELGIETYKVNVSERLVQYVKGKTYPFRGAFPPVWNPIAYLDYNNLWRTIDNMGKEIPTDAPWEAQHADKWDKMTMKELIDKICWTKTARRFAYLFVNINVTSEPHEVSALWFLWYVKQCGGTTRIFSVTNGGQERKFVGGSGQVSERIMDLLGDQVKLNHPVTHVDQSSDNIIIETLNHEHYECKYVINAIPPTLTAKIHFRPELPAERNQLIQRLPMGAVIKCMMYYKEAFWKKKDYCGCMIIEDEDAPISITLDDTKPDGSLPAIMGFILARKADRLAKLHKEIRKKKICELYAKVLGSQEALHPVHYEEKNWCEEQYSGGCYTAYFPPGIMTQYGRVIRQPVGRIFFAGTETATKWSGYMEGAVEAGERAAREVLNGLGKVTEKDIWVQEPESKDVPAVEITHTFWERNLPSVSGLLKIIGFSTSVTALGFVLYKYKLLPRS
Format: functional.

Assay [4] has as its target cGMP-inhibited 3',5'-cyclic phosphodiesterase 3A (Homo sapiens, UniProt Q14432). It counts as functional.
For another assay, the target named is T4, Progesterone receptor (Homo sapiens, UniProt P06401).
T4 sequence (P06401 whole entry): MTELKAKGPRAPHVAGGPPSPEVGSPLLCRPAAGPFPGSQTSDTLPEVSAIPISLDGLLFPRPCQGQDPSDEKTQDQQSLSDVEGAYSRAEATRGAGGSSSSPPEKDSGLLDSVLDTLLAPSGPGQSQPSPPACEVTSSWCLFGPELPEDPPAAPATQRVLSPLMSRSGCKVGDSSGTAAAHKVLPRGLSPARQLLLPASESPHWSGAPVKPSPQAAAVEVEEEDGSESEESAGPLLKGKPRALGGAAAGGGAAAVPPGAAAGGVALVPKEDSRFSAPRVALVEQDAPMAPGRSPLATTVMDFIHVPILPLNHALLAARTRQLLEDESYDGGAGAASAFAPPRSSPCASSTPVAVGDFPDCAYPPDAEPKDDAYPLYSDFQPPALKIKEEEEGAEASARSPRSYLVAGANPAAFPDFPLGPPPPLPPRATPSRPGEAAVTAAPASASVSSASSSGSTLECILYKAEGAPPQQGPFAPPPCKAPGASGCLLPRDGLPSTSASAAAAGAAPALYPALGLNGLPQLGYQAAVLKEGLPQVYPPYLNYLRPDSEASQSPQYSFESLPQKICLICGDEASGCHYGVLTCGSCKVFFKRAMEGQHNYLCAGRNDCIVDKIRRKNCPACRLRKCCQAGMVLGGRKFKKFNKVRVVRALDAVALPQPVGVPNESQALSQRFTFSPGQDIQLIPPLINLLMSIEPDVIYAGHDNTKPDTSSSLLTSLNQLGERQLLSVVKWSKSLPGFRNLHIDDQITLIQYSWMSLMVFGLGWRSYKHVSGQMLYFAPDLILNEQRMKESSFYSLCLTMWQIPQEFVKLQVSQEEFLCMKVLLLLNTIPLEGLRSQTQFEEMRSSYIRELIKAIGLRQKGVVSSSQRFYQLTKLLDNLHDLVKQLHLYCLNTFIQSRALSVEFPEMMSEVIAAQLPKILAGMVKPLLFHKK

The target in assay [5] is Prostaglandin G/H synthase 1 (Homo sapiens, UniProt P23219). It counts as functional.
Sequence of Prostaglandin G/H synthase 1 (P23219 whole entry): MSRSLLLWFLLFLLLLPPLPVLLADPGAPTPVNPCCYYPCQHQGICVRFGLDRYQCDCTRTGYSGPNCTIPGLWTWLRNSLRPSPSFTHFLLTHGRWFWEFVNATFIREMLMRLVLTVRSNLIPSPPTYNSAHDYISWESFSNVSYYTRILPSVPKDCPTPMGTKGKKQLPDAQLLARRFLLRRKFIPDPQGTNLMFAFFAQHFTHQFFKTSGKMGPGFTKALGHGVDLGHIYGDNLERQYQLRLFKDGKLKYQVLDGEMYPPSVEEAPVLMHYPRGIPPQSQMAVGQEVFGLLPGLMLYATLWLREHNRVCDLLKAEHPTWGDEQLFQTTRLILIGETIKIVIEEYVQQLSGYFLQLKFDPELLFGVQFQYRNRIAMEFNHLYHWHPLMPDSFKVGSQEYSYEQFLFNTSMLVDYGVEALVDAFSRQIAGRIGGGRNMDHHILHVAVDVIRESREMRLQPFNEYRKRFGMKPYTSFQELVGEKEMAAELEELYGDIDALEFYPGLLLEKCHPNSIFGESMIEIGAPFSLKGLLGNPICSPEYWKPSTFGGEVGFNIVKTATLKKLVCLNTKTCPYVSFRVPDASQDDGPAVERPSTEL
For assay [6], the target named is Sodium-dependent noradrenaline transporter (Homo sapiens, UniProt P23975).
Sequence of Sodium-dependent noradrenaline transporter (P23975 whole entry): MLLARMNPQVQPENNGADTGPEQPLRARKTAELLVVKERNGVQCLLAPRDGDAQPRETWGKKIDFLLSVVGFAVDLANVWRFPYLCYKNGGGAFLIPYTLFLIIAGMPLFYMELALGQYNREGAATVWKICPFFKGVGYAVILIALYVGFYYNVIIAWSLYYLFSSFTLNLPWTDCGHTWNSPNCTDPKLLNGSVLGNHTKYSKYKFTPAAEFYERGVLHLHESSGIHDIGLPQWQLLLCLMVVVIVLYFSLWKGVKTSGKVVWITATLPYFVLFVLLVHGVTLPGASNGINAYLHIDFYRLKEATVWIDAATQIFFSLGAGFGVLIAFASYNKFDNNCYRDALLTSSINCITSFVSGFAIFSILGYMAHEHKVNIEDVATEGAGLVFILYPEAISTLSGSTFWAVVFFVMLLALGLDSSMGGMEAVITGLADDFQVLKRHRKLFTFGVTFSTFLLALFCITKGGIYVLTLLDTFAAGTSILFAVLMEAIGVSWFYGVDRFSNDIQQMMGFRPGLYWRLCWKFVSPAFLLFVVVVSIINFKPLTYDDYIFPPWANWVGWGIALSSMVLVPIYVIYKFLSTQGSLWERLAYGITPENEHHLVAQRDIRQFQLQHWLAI
The target of a further assay is T5, Thromboxane A2 receptor (Homo sapiens, UniProt P21731).
T5 sequence (P21731 whole entry): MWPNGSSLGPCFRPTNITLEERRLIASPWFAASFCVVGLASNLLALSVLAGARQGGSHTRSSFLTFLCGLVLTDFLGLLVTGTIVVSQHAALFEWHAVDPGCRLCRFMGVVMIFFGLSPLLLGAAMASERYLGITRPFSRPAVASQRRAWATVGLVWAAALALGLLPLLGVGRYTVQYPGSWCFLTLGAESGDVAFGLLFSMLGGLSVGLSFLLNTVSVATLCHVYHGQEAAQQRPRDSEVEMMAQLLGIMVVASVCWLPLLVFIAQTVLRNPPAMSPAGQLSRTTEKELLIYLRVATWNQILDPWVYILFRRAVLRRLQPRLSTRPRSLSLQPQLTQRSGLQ
It counts as functional, cell-based.
Note: assay procedure not described here.

Sequence of cGMP-inhibited 3',5'-cyclic phosphodiesterase 3A (Q14432 whole entry): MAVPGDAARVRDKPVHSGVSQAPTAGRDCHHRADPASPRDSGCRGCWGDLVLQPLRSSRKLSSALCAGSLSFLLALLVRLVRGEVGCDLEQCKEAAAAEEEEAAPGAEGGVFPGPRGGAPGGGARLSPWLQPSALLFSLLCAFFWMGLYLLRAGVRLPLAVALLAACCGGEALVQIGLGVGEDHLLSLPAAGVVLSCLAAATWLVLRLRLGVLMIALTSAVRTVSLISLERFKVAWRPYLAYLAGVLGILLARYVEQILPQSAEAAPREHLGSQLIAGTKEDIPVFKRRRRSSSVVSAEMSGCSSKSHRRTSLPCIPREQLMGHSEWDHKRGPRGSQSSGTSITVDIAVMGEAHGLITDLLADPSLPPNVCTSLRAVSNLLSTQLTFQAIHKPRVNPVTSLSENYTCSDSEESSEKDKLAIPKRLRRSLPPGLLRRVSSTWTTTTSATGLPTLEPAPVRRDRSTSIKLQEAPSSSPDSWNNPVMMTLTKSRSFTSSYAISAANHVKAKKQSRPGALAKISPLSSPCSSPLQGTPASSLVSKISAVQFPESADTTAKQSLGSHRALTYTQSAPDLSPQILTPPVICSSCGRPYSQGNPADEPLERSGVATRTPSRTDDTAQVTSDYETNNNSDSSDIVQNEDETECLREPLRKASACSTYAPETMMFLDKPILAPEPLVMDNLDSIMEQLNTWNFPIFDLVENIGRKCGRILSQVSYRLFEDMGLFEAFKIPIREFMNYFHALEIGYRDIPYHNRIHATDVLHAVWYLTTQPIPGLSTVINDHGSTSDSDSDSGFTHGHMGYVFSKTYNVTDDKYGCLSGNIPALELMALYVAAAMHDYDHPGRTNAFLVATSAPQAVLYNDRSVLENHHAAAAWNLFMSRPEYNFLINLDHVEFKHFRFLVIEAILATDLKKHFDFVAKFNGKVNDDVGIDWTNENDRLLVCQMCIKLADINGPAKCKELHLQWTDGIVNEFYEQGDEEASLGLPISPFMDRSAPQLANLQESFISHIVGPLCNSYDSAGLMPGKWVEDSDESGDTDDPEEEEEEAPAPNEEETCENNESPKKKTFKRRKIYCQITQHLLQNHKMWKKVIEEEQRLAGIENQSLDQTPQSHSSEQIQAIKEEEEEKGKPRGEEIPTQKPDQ
Sequence of Acetylcholinesterase (P22303 whole entry): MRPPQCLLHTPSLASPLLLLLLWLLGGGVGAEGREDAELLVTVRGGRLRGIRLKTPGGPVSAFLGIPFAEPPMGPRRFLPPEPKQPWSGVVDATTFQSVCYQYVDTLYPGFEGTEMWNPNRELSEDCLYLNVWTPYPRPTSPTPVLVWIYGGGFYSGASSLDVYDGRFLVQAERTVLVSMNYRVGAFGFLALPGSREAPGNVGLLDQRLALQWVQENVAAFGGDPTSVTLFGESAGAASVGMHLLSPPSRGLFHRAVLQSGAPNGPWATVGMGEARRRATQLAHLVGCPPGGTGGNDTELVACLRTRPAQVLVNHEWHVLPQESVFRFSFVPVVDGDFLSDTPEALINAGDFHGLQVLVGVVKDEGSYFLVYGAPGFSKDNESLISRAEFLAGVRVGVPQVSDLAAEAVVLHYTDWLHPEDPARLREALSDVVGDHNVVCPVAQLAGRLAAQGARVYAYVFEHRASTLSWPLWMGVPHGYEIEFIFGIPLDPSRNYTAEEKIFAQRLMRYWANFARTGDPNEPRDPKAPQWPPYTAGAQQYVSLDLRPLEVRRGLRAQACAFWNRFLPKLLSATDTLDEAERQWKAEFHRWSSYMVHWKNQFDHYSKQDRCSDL

As for `C[C@@H]1O[C@@H](OC[C@H]2O[C@@H](Oc3c(-c4ccc(OCCO)c(OCCO)c4)oc4cc(OCCO)cc(O)c4c3=O)[C@H](O)[C@@H](O)[C@@H]2O)[C@H](O)[C@H](O)[C@H]1O` [TROXERUTIN], the half-maximal activity concentration (AC50) (on Acetylcholinesterase; in [1]; in assay [2]; in assay [3]; in assay [4]; at Progesterone receptor) was more than 30 µM in each case. Moreover, the concentration at half-maximal activity (AC50) (in assay [5]; in assay [6]; on Thromboxane A2 receptor) was more than 30 µM throughout.

With `COc1ccc(CCC(C)NCC(O)c2ccc(O)c([S+](C)[O-])c2)cc1` (stereo not drawn) [SULFINALOL], the AC50 (usually the midpoint of the concentration-response curve, whichever way the signal moves) at Acetylcholinesterase was more than 30 µM; in assay [1], 20.3 µM; in [2], more than 30 µM; in assay [3], more than 30 µM; in assay [4] it was more than 30 µM; at Progesterone receptor it was more than 30 µM. The AC50 in [5] was more than 30 µM; in assay [6] it was 10.6 µM; at Thromboxane A2 receptor, more than 30 µM.

`CCCC1C(=O)N2C(N(C)C)=Nc3ccc(C)cc3N2C1=O` (stereo not drawn) [APAZONE]: the concentration at half-maximal activity (AC50) (at Acetylcholinesterase; in assay [1]; in assay [2]; in assay [3]; in assay [4]; at Progesterone receptor) was more than 30 µM throughout. Besides, the concentration at half-maximal activity (AC50) in assay [5] is 8.41 µM; in assay [6], more than 30 µM; on Thromboxane A2 receptor, more than 30 µM.

Turning to `NS(=O)(=O)c1cc2c(cc1Cl)NC(C1CC3C=CC1C3)NS2(=O)=O` (stereo not drawn) [CYCLOTHIAZIDE], the concentration at half-maximal activity (AC50) (at Acetylcholinesterase; in [1]; in assay [2]; in assay [3]; in [4]; at Progesterone receptor) was more than 30 µM each time. Moreover, the concentration at half-maximal activity (AC50) (in assay [5]; in [6]; on Thromboxane A2 receptor) was more than 30 µM each time.

With `Cc1nc(-c2ccc(OCC(C)C)c(C#N)c2)sc1C(=O)O` [FEBUXOSTAT], the AC50 at Acetylcholinesterase was more than 30 µM; in [1], more than 30 µM; in assay [2] it was more than 30 µM; in assay [3], more than 30 µM; in [4], more than 30 µM; on Progesterone receptor, 16.1 µM. In addition, the AC50 (in assay [5]; in assay [6]; at Thromboxane A2 receptor) was more than 30 µM each time.

For `C1N2CN3CN1CN(C2)C3` [METHENAMINE], the half-maximal activity concentration (AC50) (on Acetylcholinesterase; in assay [1]; in [2]; in assay [3]; in assay [4]; on Progesterone receptor) was more than 30 µM throughout. The AC50 (in [5]; in assay [6]; at Thromboxane A2 receptor) was more than 30 µM throughout.

With `O=C(NC1CCN(CCCCC2(C(=O)NCC(F)(F)F)c3ccccc3-c3ccccc32)CC1)c1ccccc1-c1ccc(C(F)(F)F)cc1` [LOMITAPIDE], the half-maximal activity concentration (AC50) was more than 30 µM at Acetylcholinesterase; 2.4 µM in assay [1]; 22.6 µM in assay [2]; more than 30 µM in assay [3]; more than 30 µM in assay [4]; more than 30 µM at Progesterone receptor. Moreover, the values for the AC50 (in assay [5]; in assay [6]; on Thromboxane A2 receptor) were 23.2 µM, 2.2 µM and 8.46 µM, respectively.

As for `Nc1ccc(C(=O)O)cc1` [AMINOBENZOIC ACID], the AC50 (at Acetylcholinesterase; in [1]; in [2]; in assay [3]; in assay [4]; on Progesterone receptor) was more than 30 µM in each case. Moreover, the values for the AC50 (in [5]; in [6]; on Thromboxane A2 receptor) were 4.69 µM, more than 30 µM and more than 30 µM, respectively.

For `CCS(=O)(=O)N1CC(CC#N)(n2cc(-c3ncnc4[nH]ccc34)cn2)C1` [BARICITINIB], the concentration at half-maximal activity (AC50) was more than 10 µM at Acetylcholinesterase; more than 10 µM in assay [1]; more than 30 µM in assay [2]; more than 30 µM in assay [3]; more than 30 µM in [4]; more than 30 µM at Progesterone receptor. Moreover, the half-maximal activity concentration (AC50) (in assay [5]; in assay [6]; at Thromboxane A2 receptor) was more than 30 µM throughout.

For `O=C1CN=C(c2ccccc2)c2c(sc3c2CCCC3)N1` [BENTAZEPAM], the half-maximal activity concentration (AC50) is more than 30 µM on Acetylcholinesterase; 12.4 µM in assay [1]; more than 30 µM in assay [2]; more than 30 µM in [3]; more than 30 µM in [4]; 14.8 µM at Progesterone receptor. In addition, the AC50 (in [5]; in assay [6]; on Thromboxane A2 receptor) was more than 30 µM each time.

For the compound `CCOc1ccc(/C=C2\NCCc3cc(OCC)c(OCC)cc32)cc1OCC` [DROTAVERINE], the concentration at half-maximal activity (AC50) at Acetylcholinesterase is 26.1 µM; in assay [1] it was more than 10 µM; in assay [2], 28.4 µM; in [3], more than 30 µM; in [4], more than 30 µM; at Progesterone receptor, more than 30 µM. Also, the half-maximal activity concentration (AC50) in [5] is 9.33 µM; in [6], more than 30 µM; on Thromboxane A2 receptor, more than 30 µM.

On to `CCOC(=O)CC(SP(=S)(OC)OC)C(=O)OCC` (stereo not drawn) [MALATHION], for which the half-maximal activity concentration (AC50) (on Acetylcholinesterase; in assay [1]; in assay [2]; in assay [3]; in assay [4]; at Progesterone receptor) was more than 30 µM each time. For the same compound, the concentration at half-maximal activity (AC50) (in assay [5]; in assay [6]; on Thromboxane A2 receptor) was more than 30 µM each time.
